# Reference: paper PMC3356383, “Efficacious Intermittent Dosing of a Novel JAK2 Inhibitor in Mouse Models of Polycythemia Vera” (PLoS ONE, 2012)
# pIC50: −log10 of the molar value. Marks after values point to notes of the source that are not given here.
# Key:
# [1] = test system: bone marrow cell populations; experiment: Cell populations in bone marrow of normal mice; type: in vivo; conditions: 54 mpk
# Method: (§1) Cells were stained in PBS, 0.5% BSA with antibodies for 15 min on ice. Stained cells were acquired on a 4-laser LSR-II (BD Biosciences) and data analyzed using FlowJo software (Treestar). Dead cells were labeled with the blue fluorescent LIVE/DEAD reactive dye (Invitrogen) and excluded from the analysis.
# (§2) Monoclonal antibodies (anti-mouse): CD3, CD4, CD5, CD8, CD11b, CD19, CD21/35, CD23, CD25, CD43, CD44, CD49b, CD69, CD71, CD93, CD117, B220, GR-1, IgD, NK1.1, NKG2A/C/E, NKG2D, Ter119 were purchased from BD Biosciences; CD4, CD8, CD49b, CD62L, TCRβ, TCRγδ from eBioscience; GR-1 from Invitrogen; CD43 from Miltenyi Biotec. Goat anti-mouse IgM-FITC, (μ chain specific) from Jackson Immuno Research.
# (§3) JAK2 and its family members JAK1 and JAK3 are known to signal downstream of cytokines that play essential roles in the development of lymphoid cell populations. To examine more thoroughly the effects of JAK2 inhibition on lymphoid cells, we analyzed wild-type (C57BL/6) mice treated with 54 mpk MRLB-11055 for 3 days, 6 days or up to 5 cycles of 3 days (“on”) followed by a 4 day holiday (“off”).
# (§4) Supplementary file pone.0037207.s006.doc: Table S4 Effect of MRLB-11055 on Cell Populations in Bone Marrow of Normal Mice. Cell counts measured by Advia. Cycles refer to 3 days of treatment followed by a 4 day holiday. *p<0.05 in Student T test when comparing vehicle 5 cycle with treatment 5 cycle and vehicle 2 cycle with treatment 2 cycle, resp. (DOC) Click here for additional data file.
# spleen cell populations = experiment: Cell populations in spleen of normal mice; type: in vivo; conditions: 54 mpk; for Spleen B-Cells B220+ / Spleen Cell Count / Spleen Myeloid Gr-1+ CD11b+ / Spleen NK-Cells NK1.1+ NKG2D+ / Spleen T-Cells CD4+ / Spleen T-Cells CD8+ / Spleen T-Cells Tregs CD25+CD127^lo / Spleen Weight / Spleen B-Cells MZ-B-cells CD21^hiCD23^lo: normal mice
# Method: as §1, §2, §3
# as §4, with “pone.0037207.s004.doc:” for “pone.0037207.s006.doc:”, “S2” for “S4”, “Spleen” for “Bone Marrow”
# 220 recombinant kinases = experiment: Kinase profiling (Millipore), whole panel; type: biochemical; conditions: 198 of 220 tested kinases; based on JAK2 (JH1-JH2) IC50
# Method: Kinase profiling was conducted by Millipore (Billerica, MA).
# thymus cell populations = experiment: Cell populations in thymus of normal mice; type: in vivo; conditions: 54 mpk
# Method: as §1, §2, §3
# as §4, with “pone.0037207.s007.doc:” for “pone.0037207.s006.doc:”, “S5” for “S4”, “Thymus” for “Bone Marrow”
# [2] = test system: pSTAT5 in BaF3 (JAK2 V617F) cells; experiment: Cell pSTAT5 AlphaScreen SureFire assay; type: cell-based; conditions: Mus musculus, 1 hour
# Method: Measurement of pSTAT5 in cells was performed essentially as described previously using an AlphaScreen™ SureFire™ (Perkin Elmer) assay. BaF3 (JAK2 WT), BaF3 (JAK2 V617F), and CTLL-2 cells were exposed to compound for 60 min prior to lysis and subsequent detection of pSTAT5 via AlphaScreen technology. Prior to compound treatment, BaF3 (JAK2 WT) and CTLL-2 cells were cytokine starved overnight, with EPO or IL-2 added 15 minutes prior to lysis, respectively.
# [3] = 2 cycles (3 days treatment, 4 day holiday)
# [4] = 5 cycles (3 days treatment, 4 day holiday)
# [5] = 6 days of continuous treatment, wild-type C57BL/6 mice
smiles,measurement,setting,value
NC(=O)c1cnc(N[C@H](C2CC2)C(F)(F)F)c2c1[nH]c1cc(-c3cnc(N)nc3)ccc12 [MRLB-11055],B-Cells (CD19+B220+) Immature AA4.1+ IgM+,[1]; [3],0.70 ± 0.04* x 10^6
same,B-Cells (CD19+B220+) Mature AA4.1- IgM+,[1]; [3],0.54 ± 0.12 x 10^6
same,B-Cells (CD19+B220+) Pro/pre AA4.1+ IgM-,[1]; [3],2.78 ± 0.92 x 10^6
same,B-Cells (CD19+B220+) Total,[1]; [3],4.05 ± 0.94* x 10^6
same,Erythroid Progenitors,[1]; [3],8.3 ± 0.9 x 10^6
same,Mature Erythrocytes,[1]; [3],13.5 ± 0.7 x 10^6
same,Myeloid GR-1+ CD11b+,[1]; [3],8.33 ± 0.85* x 10^6
same,Nucleated Cells,[1]; [3],25.0 ± 4.0 x 10^6
same,B-Cells (CD19+B220+) Immature AA4.1+ IgM+,[1]; [4],0.15 ± 0.05* x 10^6
same,B-Cells (CD19+B220+) Mature AA4.1- IgM+,[1]; [4],0.38 ± 0.17* x 10^6
same,B-Cells (CD19+B220+) Pro/pre AA4.1+ IgM-,[1]; [4],1.22 ± 0.74 x 10^6
same,B-Cells (CD19+B220+) Total,[1]; [4],1.76 ± 0.87* x 10^6
same,Erythroid Progenitors,[1]; [4],5.9 ± 1.9 x 10^6
same,Mature Erythrocytes,[1]; [4],10.3 ± 3.2 x 10^6
same,Myeloid GR-1+ CD11b+,[1]; [4],7.83 ± 3.46 x 10^6
same,Nucleated Cells,[1]; [4],19.6 ± 7.2 x 10^6
same,B-Cells (CD19+B220+) Immature AA4.1+ IgM+,[1]; 3 days,0.22 ± 0.09* x 10^6
same,B-Cells (CD19+B220+) Mature AA4.1- IgM+,[1]; 3 days,0.32 ± 0.17* x 10^6
same,B-Cells (CD19+B220+) Pro/pre AA4.1+ IgM-,[1]; 3 days,0.24 ± 0.10* x 10^6
same,B-Cells (CD19+B220+) Total,[1]; 3 days,0.78 ± 0.35* x 10^6
same,Erythroid Progenitors,[1]; 3 days,0.5 ± 0.3* x 10^6
same,Mature Erythrocytes,[1]; 3 days,25.0 ± 5.5* x 10^6
same,Myeloid GR-1+ CD11b+,[1]; 3 days,2.07 ± 0.55* x 10^6
same,Nucleated Cells,[1]; 3 days,4.7 ± 1.6* x 10^6
same,B-Cells (CD19+B220+) Immature AA4.1+ IgM+,[1]; 6 days,0.11 ± 0.03* x 10^6
same,B-Cells (CD19+B220+) Mature AA4.1- IgM+,[1]; 6 days,0.59 ± 0.52 x 10^6
same,B-Cells (CD19+B220+) Pro/pre AA4.1+ IgM-,[1]; 6 days,0.08 ± 0.03* x 10^6
same,B-Cells (CD19+B220+) Total,[1]; 6 days,0.79 ± 0.54* x 10^6
same,Erythroid Progenitors,[1]; 6 days,1.4 ± 0.8* x 10^6
same,Mature Erythrocytes,[1]; 6 days,18.7 ± 2.5* x 10^6
same,Myeloid GR-1+ CD11b+,[1]; 6 days,1.90 ± 0.68* x 10^6
same,Nucleated Cells,[1]; 6 days,5.4 ± 2.2* x 10^6
same,Decrease of splenic B220+ B-cells,spleen cell populations; [5],2 fold
same,Decrease of splenic NK1.1+ cells,spleen cell populations; [5],25 fold
same,Reduction of any of the splenic lymphocytes tested,"spleen cell populations; intermittent dosing, 5 cycles of 3 days on and 4 days off",≤ 2 fold
same,Spleen B-Cells B220+,spleen cell populations; [3],30.9 ± 2.2 X10^6
same,Spleen Cell Count,spleen cell populations; [3],53.2 ± 1.2 X10^6
same,Spleen Myeloid Gr-1+ CD11b+,spleen cell populations; [3],0.67 ± 0.17 X10^6
same,Spleen NK-Cells NK1.1+ NKG2D+,spleen cell populations; [3],1.2 ± 0.2* X10^6
same,Spleen T-Cells CD4+,spleen cell populations; [3],6.5 ± 1.0* X10^6
same,Spleen T-Cells CD8+,spleen cell populations; [3],4.0 ± 0.4* X10^6
same,Spleen T-Cells Tregs CD25+CD127^lo,spleen cell populations; [3],0.4 ± 0.1 * X10^6
same,Spleen Weight,spleen cell populations; [3],76.3 ± 4.7 mg
same,Spleen B-Cells B220+,spleen cell populations; [4],31.2 ± 6.9 X10^6
same,Spleen B-Cells MZ-B-cells CD21^hiCD23^lo,spleen cell populations; [4],1.7 ± 0.4* X10^6
same,Spleen Cell Count,spleen cell populations; [4],59.4 ± 20.3 X10^6
same,Spleen Myeloid Gr-1+ CD11b+,spleen cell populations; [4],1.05 ± 0.76 X10^6
same,Spleen NK-Cells NK1.1+ NKG2D+,spleen cell populations; [4],0.9 ± 0.3* X10^6
same,Spleen T-Cells CD4+,spleen cell populations; [4],7.9 ± 1.9* X10^6
same,Spleen T-Cells CD8+,spleen cell populations; [4],4.9 ± 1.1* X10^6
same,Spleen T-Cells Tregs CD25+CD127^lo,spleen cell populations; [4],0.6 ± 0.2* X10^6
same,Spleen Weight,spleen cell populations; [4],92.5 ± 29.8 mg
same,Spleen B-Cells B220+,spleen cell populations; 3 days,24.2 ± 6.2* X10^6
same,Spleen B-Cells MZ-B-cells CD21^hiCD23^lo,spleen cell populations; 3 days,0.2 ± 0.2* X10^6
same,Spleen Cell Count,spleen cell populations; 3 days,36.2 ± 8.7* X10^6
same,Spleen Myeloid Gr-1+ CD11b+,spleen cell populations; 3 days,0.25 ± 0.13* X10^6
same,Spleen NK-Cells NK1.1+ NKG2D+,spleen cell populations; 3 days,0.10 ± 0.03* X10^6
same,Spleen T-Cells CD4+,spleen cell populations; 3 days,4.9 ± 0.8* X10^6
same,Spleen T-Cells CD8+,spleen cell populations; 3 days,4.7 ± 1.1* X10^6
same,Spleen T-Cells Tregs CD25+CD127^lo,spleen cell populations; 3 days,0.3 ± 0.1* X10^6
same,Spleen Weight,spleen cell populations; 3 days,50.5 ± 4.4* mg
same,Spleen B-Cells B220+,spleen cell populations; 6 days,16.9 ± 8.7* X10^6
same,Spleen B-Cells MZ-B-cells CD21^hiCD23^lo,spleen cell populations; 6 days,0.2 ± 0.2* X10^6
same,Spleen Cell Count,spleen cell populations; 6 days,26.5 ± 3.1* X10^6
same,Spleen Myeloid Gr-1+ CD11b+,spleen cell populations; 6 days,0.22 ± 0.09* X10^6
same,Spleen NK-Cells NK1.1+ NKG2D+,spleen cell populations; 6 days,0.07 ± 0.04* X10^6
same,Spleen T-Cells CD4+,spleen cell populations; 6 days,4.1 ± 1.7* X10^6
same,Spleen T-Cells CD8+,spleen cell populations; 6 days,3.2 ± 1.5* X10^6
same,Spleen T-Cells Tregs CD25+CD127^lo,spleen cell populations; 6 days,0.2 ± 0.1* X10^6
same,Spleen Weight,spleen cell populations; 6 days,45.8 ± 7.6* mg
same,Fold selectivity over JAK2 for 198/220 kinases,220 recombinant kinases,>25-fold over JAK2
same,Thymus CD4+CD8+,thymus cell populations; [3],91.3 ± 0.3%
same,Thymus CD4-CD8-,thymus cell populations; [3],3.0 ± 0.8%
same,Thymus Cell Count,thymus cell populations; [3],75.4 ± 26.5 x 10^6
same,Thymus Single Positive CD4+,thymus cell populations; [3],3.9 ± 0.8* %
same,Thymus Single Positive CD8+,thymus cell populations; [3],0.55 ± 0.03* %
same,Thymus CD4+CD8+,thymus cell populations; [4],90.7 ± 1.5%
same,Thymus CD4-CD8-,thymus cell populations; [4],2.1 ± 0.6%
same,Thymus Cell Count,thymus cell populations; [4],130.3 ± 27.1 x 10^6
same,Thymus Single Positive CD4+,thymus cell populations; [4],5.0 ± 1.1%
same,Thymus Single Positive CD8+,thymus cell populations; [4],1.4 ± 0.2* %
same,Thymus CD4+CD8+,thymus cell populations; 3 days,85.6 ± 2.4* %
same,Thymus CD4-CD8-,thymus cell populations; 3 days,3.5 ± 0.6%
same,Thymus Cell Count,thymus cell populations; 3 days,37.3 ± 13.4* x 10^6
same,Thymus Single Positive CD4+,thymus cell populations; 3 days,7.1 ± 1.3%
same,Thymus Single Positive CD8+,thymus cell populations; 3 days,2.7 ± 0.8%
same,Thymus CD4+CD8+,thymus cell populations; 6 days,87.9 ± 5.0%
same,Thymus CD4-CD8-,thymus cell populations; 6 days,2.4 ± 0.9%
same,Thymus Cell Count,thymus cell populations; 6 days,37.3 ± 12.1* x 10^6
same,Thymus Single Positive CD4+,thymus cell populations; 6 days,5.8 ± 2.7%
same,Thymus Single Positive CD8+,thymus cell populations; 6 days,2.7 ± 1.1%
same,pIC50,[2],7.96
